# Laboratory results published in patent US12076310B2, “Compounds and methods for the treatment of acute myelogenous leukemia” (University of Rochester, priority 2021, dated 2024).
# “Also recorded” adds a separate entry of the source.
# Experiments:
# [1] = tested on: MOLM13, MV411, THP1 and U937 cells; assay: Apoptosis by Western blot of cleaved PARP; assay type: cell-based, human; conditions: 25 μM, 24 hours
# Description: For measurement of apoptosis by Western blot the MOLM13, MV41, THP1 and U937 cells treated with UR778Br for 24 hours were lysed and expression of cleaved PARP, an indicator of apoptosis, was measured as described above.
# [2] = tested on: leukemia cell lines; assay: Screening of hits and structural analogs for effects on proliferation of leukemia cell lines; assay type: cell-based, human; conditions: dose range tested; data not shown
# [3] = tested on: normal bone marrow cells; assay: Colony formation by normal bone marrow in MethoCult; assay type: cell-based, human
# Description: Effect of UR778Br on colony formation by normal bone marrow: Vials of cryopreserved aliquots were thawed the in a 37° C. water bath. Nine ml of RPMI with 2% FBS were added dropwise to the cells in 1 ml of freezing media, centrifuged at 1000 rpm for 5 min and re-suspended in 5 ml of RPMI. The cells were counted in a hemocytometer and viability estimated by Trypan blue dye exclusion. The cells were added to MethoCult H4435 Enriched (Stem Cell Technologies, catalog number 04435) to achieve concentrations of 5×10^4 to 1×10^5 viable cells/ml. UR778Br was added at indicated concentrations. The mixture was vortexed and allowed to settle. Each condition was dispersed in triplicate or quadruplicate. The plates were incubated at 37° C. with 5% CO2 in a humidified incubator and colonies were counted at 7, 14 and 21 days. Images of colony forming unit assays were acquired using the Celligo imaging cytometer (Nexcelom Biosciences) at a resolution of 1 pixel/μm. Celligo instrument software was used for image processing.
# [4] = tested on: MOLM13, MV411, THP1 and U937 cells; assay: Cell cycle analysis by flow cytometry; assay type: cell-based, human; conditions: range of concentrations, 24 hours
# Description: Cell cycle analysis: For cell cycle analysis, Leukemia cell lines were washed with 1× phosphate buffered saline (PBS Mediatech, Inc., Manassas, VA, USA) and centrifuged at 1200 rpm for 8 minutes. Cell pellet was re-suspended in 100 microliters of Cytofix/Cytoperm™ (BD Biosciences, Cat No. 554722) buffer for at room temperature (RT) for 15 minutes. Cell suspension washed with 1×PBS and centrifuged at 1200 rpm for 8 minutes and re-suspended in 1 ml of culture media containing 1 μl of Vybrant® DyeCycler™ Violet Stain (ThermoFisher Scientific, Cat No. V35003). Cell suspensions were incubated at 37° C. in a 5% CO2 incubator for least 30 minutes. Cell suspensions were analyzed using a LSRII™ flow cytometer (BD Biosciences, San Jose, CA, USA). A minimum of 8,000 cells were included in the analysis of each sample. Data were analyzed by FlowJo software (Tree Star, Ashland, OR, USA) and collected on linear scale for forward and side scatter (i.e., FSC and SSC, respectively) and on a linear scale for violet fluorescence channel […].
# [5] = tested on: primary AML cells; assay: Clonogenicity of primary AML cells in MethoCult; assay type: cell-based, human
# Description: Effect of UR778Br on clonogenicity of primary AML cells: Vials of primary AML cells cryopreserved in liquid nitrogen were thawed rapidly in a 37° C. water bath. The contents, generally one ml, were transferred to a 15 ml conical tube, one tenth the volume of DNase was added (bovine pancreas deoxyribonuclease, Sigma Aldrich D4263-5VL), it was mixed gently and incubated in a 37° C. water bath for 90 seconds. 9 ml of DMEM with 2% FBS was added dropwise and mixed gently. Samples were then centrifuged for 5 to 6 minutes, aspirated and the supernatant discarded. 70 μl of DNase were added and mixed gently. 10 ml of DMEM with 2% FBS was added slowly to resuspend and then the sample was centrifuged for 5 to 6 minutes. Supernatant was discarded, 50 μl of DNase was added, sample was mixed gently and the pellet was resuspended in 5 ml of IMDM+10% FBS, L-glutamine 2 mM (GIBCO) and penicillin and streptomycin (50 units and 50 mcg/ml). The cells were counted in a hemocytometer with viability estimated by Trypan blue dye exclusion.
# The cell suspension was then added to MethoCult Enriched H4435 (Stem Cell Technologies, catalog number 04435) to achieve a final concentration between 5×10^4 to 2×10^5/ml. DMSO, UR778Br or cytarabine were added to achieve indicated concentrations. […] The plates were incubated 37° C., 5% CO2 incubator and colonies were counted at 7, 14 and 21 days. […]
# [6] = tested on: MOLM13, MV411, THP1 and U937; assay: Colony formation of leukemia cell lines in MethoCult; assay type: cell-based, human; conditions: 6.25 μM
# Description: Effect of UR778Br on colony formation cell lines: MOLM13, MV411, THP1 and U937 were added to MethoCult H4435 Enriched (Stem Cell Technologies, catalog number 04435) to achieve concentration of 2000 cells/ml, 500 cells/ml and 200 cells/ml. UR778br was added to achieve a range of concentrations. Each condition was done in triplicate. The plates were incubated at 37° C. with 5% CO2 in a humidified incubator Colonies were counted at 7, 14 and 21 days.
# [7] = tested on: primary human AML cells; assay: Viability of primary AML cells (annexin-V/DAPI flow cytometry); assay type: cell-based; conditions: dose range, 48 hours
# Description: Effect of UR778Br on apoptosis in primary AML cells: Primary AML cells were treated with DMSO or varying concentrations of UR778Br and cytarabine 5 μM and cultured in a 37° C., 5% CO2 incubator for 24 and 48 hours. The cells were stained for 15 min in annexin-V binding buffer (10 mM HEPES/NaOH, pH 7.4, 140 mM NaCl, 2.5 mM CaCl2)) containing annexin-V-APC antibody (BD Biosciences) and DAPI (Sigma). Stained cells were analyzed immediately on using a LSRII™ flow cytometer (BD Biosciences, San Jose, CA, USA).
# Effect of UR778Br on viability of primary human AML cells: Vials of primary AML cells cryopreserved in liquid nitrogen were thawed rapidly in a 37° C. water bath. The contents, generally one ml, were transferred to a 15 ml conical tube, one tenth the volume of DNase was added (bovine pancreas deoxyribonuclease, Sigma Aldrich D4263-5VL), it was mixed gently and incubated in a 37° C. water bath for 90 seconds. 9 ml of DMEM with 2% FBS was added dropwise and mixed gently. Samples were then centrifuged for 5 to 6 minutes, aspirated and the supernatant discarded. […] The cells were counted in a hemocytometer with viability estimated by Trypan blue dye exclusion.
# Primary cells were cultured in 37° C., 5% CO2 incubator. […] Stained cells were analyzed immediately on BD FACS Celesta, flow cytometer (BD Biosciences). Viable cells were scored as annexin-V and DAPI double negative cells.
# [8] = tested on: IQGAP1; assay: IQGAP1 expression in MOLM13 cells (immunoblot); assay type: cell-based, human; conditions: 25 μM, 24 hours
# [9] = tested on: MOLM13, MV411, THP1 and U937; assay: Viability of cell lines by the MTS assay; assay type: cell-based, human; conditions: range of concentrations, 48 hours
# Description: Effect of UR778Br on viability of cell lines: Viability of MOLM13, MV411, THIP1 and U937 was determined by the MTS assay. Briefly, 20,000 to 40,000 cells/well were seeded in triplicate wells of a 96 well plate and treated with a range of UR778Br doses and incubated for 48 to 72 hours at 37° C. with 5% CO2 in a humidified incubator. Cell Titre96R Aqueous One Solution Cell Proliferation Assay reagent (Promega Corp., catalog number: G3580) diluted 1-10 in complete RPMI medium was added and cells were incubated for 4 hours. The optical density (OD) values were read at 490 nm wavelength using BioRad iMark microplate reader. Experiments were performed in triplicates; data are expressed as the mean of the triplicate determinations (X±SD) of a representative experiment in % of absorbance by samples with untreated cells [=100%].
# [10] = tested on: MOLM13, MV411, THP1 and U937 cells; assay: Proliferation of cell lines by counting cells in a hemocytometer; assay type: cell-based, human; conditions: range of concentrations, 72 hours
# Description: Effect of UR778Br on proliferation of cell lines: Proliferation of MOLM13, MV411, THP1 and U937 cells was measured by counting cells in a hemocytometer. Briefly, cells were seeded at 20,000 to 40,000 cells/well in triplicate wells of a 96 well plate and treated with a range of UR778Br doses and incubated at 37° C. with 5% CO2 in a humidified incubator. Cell counts were determined at 24-, 48- and 72 hours.
smiles,measurement,setting,value
CCCCN1C(=O)C(O)(CC(=O)c2ccccc2O)c2cc(Br)ccc21 (stereo not shown) [UR778Br],apoptosis (expression of cleaved PARP),[1],apoptosis in MOLM13 cells
same,apoptosis (expression of cleaved PARP),[1]; listed as UR778B2,apoptosis in the four cell lines
same,inhibition of proliferation of leukemia cells (anti-proliferative activity),[2],most potent structural analog of AK778
same,colony formation by normal bone marrow,[3]; 6.25 μM,did not inhibit colony formation by normal bone marrow; also recorded: majority of normal bone marrow samples do not exhibit reduced colony formation
same,colony formation by normal primary bone marrow cells,[3]; 12.5 μM compared with 6.25 μM,inhibition of the colony formation units to a greater degree than at 6.25 μM concentration
same,cell cycle arrest,[4],cell cycle arrest in the G2M phase in a dose-dependent manner; also recorded: dose-dependent arrest in G2/M phase of the cell cycle
same,colony formation by three primary AML cells,[5]; concentrations as low as 6.25 μM,blocks colony formation
same,colony formation units of primary AML cells,[5]; varying concentrations,inhibition of the colony formation units
same,colony formation units,[6],suppress clonogenic progenitors; also recorded: inhibition of the colony formation units
same,viability (annexin-V and DAPI double negative cells),[7],dose dependent decrease in viability
same,expression of IQGAP1,[8],decreased expression of IQGAP1
same,viability,[9],decreased viability in AML cell lines in a dose-dependent fashion; also recorded: dose-dependent decrease in viability
same,proliferation,[10],dose dependent reduction of proliferation
